pIC50: −log10 of the molar value.
Key:
[1] = system: BXPC-3; experiment: Cell viability assay (CCK-8); assay type: cell-based; conditions: ADCs; CCK-8, 96 hours; cell RMCA [sic], Pancreas; read-out: IC50 (95% Cl)
Protocol: (§1) Cell viability was determined using Cell Counting Kit 8 (CCK-8). Cells were seeded into 96-well plates at 3000-10000 cells/well. After incubation overnight, drugs were added at different concentrations. Plates were incubated in a 5% CO2, 37° C. humidified chamber for 96 hours. CCK8 reagent was added thereto and the plates were placed back to the incubator until the absorbance at 450 nm of untreated control cells was greater than 1.0. Growth inhibition was measured as the percent growth relative to untreated cells. Dose response curve was generated from the mean values of two or three tests, and IC50 values were calculated using Prism GraphPad software.
(§2) The anti-tumor efficacy of different payloads on different tumor cell lines was detected by CCK-8, and the results are shown in FIG. 5.

[2] = system: Capan-1; experiment: Cell viability assay (CCK-8); assay type: cell-based; conditions: ADCs; CCK-8, 96 hours; Cxoo-1 [sic], Pancreas; read-out: IC50 (95% Cl)
Protocol: as §1, §2

[3] = system: HT29; experiment: Cell viability assay (CCK-8); assay type: cell-based; conditions: ADCs; CCK-8, 96 hours; cell '3128' [sic], Colon; read-out: IC50 (95% Cl)
Protocol: as §1, §2

[4] = system: MDA-MB-231; experiment: Cell viability assay (CCK-8); assay type: cell-based; conditions: ADCs; CCK-8, 96 hours; cell 'SRM-K9-231' [sic], Mamary; read-out: IC50 (95% Cl)
Protocol: as §1, §2

[5] = system: MDA-MB-468; experiment: Cell viability assay (CCK-8); assay type: cell-based; conditions: ADCs; CCK-8, 96 hours; SRM-M9-409, Mammary; read-out: IC50 (95% Cl)
Protocol: as §1, §2

[6] = system: NCI-H1688; experiment: Cell viability assay (CCK-8); assay type: cell-based; conditions: ADCs; CCK-8, 96 hours; cell 'HCl-11685' [sic], Lung; read-out: IC50 (95% Cl)
Protocol: as §1, §2

[7] = system: SKBR3 cells; experiment: Endocytosis and intracellular localization of ADC by confocal microscopy; assay type: cell-based; conditions: 5 µg/mL, 37° C., 45 or 90 min
Protocol: SKBR3 cells were incubated with 5 µg/mL of hRS7-VK-PTX or hRS7-VK-SN38 in a 24-well plate (1 × 10^4 cells/well) in a 5% CO2, 37° C. incubator for 45 or 90 min. Cells were washed once with PBS, fixed and permeabilized. After washing, cells were stained with 488 goat anti-human IgG (H&L) or 555 anti-rabbit IgG F(ab′)2 fragment. Nuclear DNA was stained with 4′,6-dimidyl-2-phenylindole (DAPI). Immunofluorescence was recorded with an Olympus BK71 confocal microscope.
SKBR3 cells were incubated with ADC molecules at 37° C. for 45 or 90 min. Unbound ADC was removed by washing cells in a culture medium, then the cells were fixed and permeabilized. The marker proteins LAMP-1, GM130 and clathrin were detected with their respective antibodies and a secondary antibody conjugated to Alex®555 (red). Anti-Trop-2 ADC was detected with DyLight®488-conjugated secondary antibody (green). DAPI was used to stain nuclear DNA (blue).

[8] = system: COLO205 cells; experiment: COLO205 mouse transplanted tumor model; assay type: in vivo, BALB/c nu/nu mice; conditions: COLO205 xenograft, intraperitoneal, days 7, 11, 15, 19; p<0.001 vs hRS7-VK-SN38
From the text: (§3) Five-week-old female athymic BALB/c nu/nu mice were purchased from Charles River Company (Shanghai, China), and mice were randomly divided into 5-6 mice/group. Animal handling and procedures were approved and performed in accordance with the requirements of the Institutional Animal Care and Use Committee (IACUC) of Shanghai Institute of Materia Medica, Chinese Academy of Sciences. All models were inoculated subcutaneously on the side of mice. BXPC-3, HCC1806 and NCIH1688 cells were established by injecting and homogenizing 5 × 10^6 cells in Matrigel matrix. COLO205 cells were established by injecting and suspending 1 × 10^7 cells in Matrigel matrix. […] The percentage of inhibition was calculated by the following formula: (1-average tumor volume of the treatment group/average tumor volume of the control group)×100%. Toxicity of the different treatment groups was assessed by monitoring weight loss.
Mice inoculated with COLO205 cells (n = 6 per group) were treated with ADC or control drug on days 7, 11, 15, and 19, and tumor volume was measured two or three times a week. Statistical significance between treatment and control groups was assessed using a two-tailed t-test. ***P<0.001, comparing hRS7-VK-PTX with hRS7; p<0.001, comparing hRS7-VK-PTX with hRS7-VK-SN38, data = mean ± SD, the results are shown in FIG. 1c.

[9] = system: BXPC-3 cells; experiment: BXPC-3 mouse transplanted tumor model; assay type: in vivo, BALB/c nu/nu mice
From the text: as §3
Mice inoculated with BXPC-3 cells (n = 5 per group) were treated with ADC or naked antibody on days 5, 13, and 21, and tumors were measured two or three times a week. On day 25, statistical significance between treatment and control groups was assessed using a two-tailed t-test. ***P<0.001, compared with hRS7 treatment group; *P<0.05, comparing hRS7-VK-PTX treatment group with PTX treatment group; compared with hRS7 treatment group, P<0.001, data=mean ± SD, the results are shown in FIG. 7a.

[10] = system: HCC1806 cells; experiment: HCC1806 mouse transplanted tumor model; assay type: in vivo, BALB/c nu/nu mice
From the text: as §3
Mice inoculated with HCC1806 cells (n = 6 per group) were treated on days 7, 10 and 14. Tumors were measured two or three times per week. On day 20, statistical significance between treatment and control groups was assessed using a two-tailed t-test. *P <0.05, comparing hRS7-VK-PTX treatment group with hRS7-VK-SN38 treatment group, data = mean ± SD, the results are shown in FIG. 7b.

[11] = system: mixture of Trop-2-positive tumor cells BXPC-3 and Trop-2-negative tumor cells NCIH1688; experiment: Bystander effect: transplanted tumor from mixture of BXPC-3 and NCIH1688 cells; assay type: in vivo, BALB/c-nu/nu mice; conditions: 10 mg/kg, transplanted tumors heterogeneously expressing Trop-2
From the text: Five-week-old female athymic BALB/c nu/nu mice were purchased from Charles River Company (Shanghai, China), and mice were randomly divided into 5-6 mice/group. Animal handling and procedures were approved and performed in accordance with the requirements of the Institutional Animal Care and Use Committee (IACUC) of Shanghai Institute of Materia Medica, Chinese Academy of Sciences. All models were inoculated subcutaneously on the side of mice. BXPC-3, HCC1806 and NCIH1688 cells were established by injecting and homogenizing 5 × 10^6 cells in Matrigel matrix. COLO205 cells were established by injecting and suspending 1 × 10^7 cells in Matrigel matrix. After the tumor volume reached about 200 mm^3, the tumor-bearing mice were randomly divided into treatment groups and a control group according to the tumor volume. Each drug was administered intraperitoneally. […] The percentage of inhibition was calculated by the following formula: (1-average tumor volume of the treatment group/average tumor volume of the control group)×100%. Toxicity of the different treatment groups was assessed by monitoring weight loss.
A mixture of Trop-2-positive tumor cells BXPC-3 and Trop-2-negative tumor cells NCIH1688 or NCIH1688 cells alone were inoculated into BALB/c-nu/nu mice (FIG. 1e, right panel), and the “bystander effect” of hRS7-VK-PTX was detected in a mouse transplanted tumor model.

hRS7-VK-PTX
pIC50 [1]: 9.20 | pIC50 [2]: 8.53 | pIC50 [3]: 8.46 | pIC50 [4]: 8.80 | pIC50 [5]: 8.57 | pIC50 [6]: 7.49 | internalization and intracellular localization [7]: co-localization of hRS7-VK-PTX molecule with lysosomes and clathrin heavy chain | inhibition of transplanted tumor [8]: more effective than hRS7-VK-SN38 | inhibition of transplanted tumor ([9]; BXPC-3 xenograft, intraperitoneal, days 5, 13, 21): more effective than hRS7-VK-SN38 | inhibition of transplanted tumor compared with PTX ([9]; BxPC-3 model, 3 mg/kg of hRS7-VK-PTX, P = 0.0248): more effective than 10 mg/kg of PTX | tumor inhibitory effect compared with PTX ([10]; HCC1806 model, 30 mg/kg (1.3 mg/kg PTX equivalent)): comparable to that of 10 mg/kg of PTX | inhibition of transplanted tumor ([10]; HCC1806 xenograft, intraperitoneal, days 7, 10, 14, P<0.05 vs hRS7-VK-SN38 on day 20): more effective than hRS7-VK-SN38 | tumor growth inhibition index (TGI) [11]: 99.5%

From patent publication US20230346969A1, “INTERMEDIATE FOR PREPARING ANTIBODY-DRUG CONJUGATE (ADC), PREPARATION METHOD THEREFOR, AND USE THEREOF” (priority 2020, published 2023)
